Measured values taken from patent US5747235A, “Silver halide light sensitive emulsion layer having enhanced photographic sensitivity” (Eastman Kodak Company, priority 1996, dated 1998).
Counter-ions that a name gives are not always drawn.

Experiments:
[1] = Example 14: blue light sensitivity and fog after post-exposure bath, emulsion T-1; settings: bathed after exposure
Protocol: Samples of the coating were exposed to a xenon flash of 10^-3 sec duration filtered through a 2.0 neutral density filter, Kodak Wratten filters 35 and 38A, and a step wedge ranging in density from 0 to 3 density units in 0.15 density steps. These conditions allowed only blue light to expose the coatings. After exposure, one sample of the coating was subjected to each of the following treatments:
B. Post-exposure bath for 15 min in a solution of 5.4×10^-4 M NaBr and 3.0'10^-6 M S-3 at pH=6.0. (Bath 1)
Post-exposure bath for 15 min in a solution of 5.4×10^-4 M NaBr and 1.5×10^-5 M S-3 at pH=6.0. (Bath 2)
The coatings subjected to the post-exposure baths were then rinsed to remove excess solution and all coatings were developed together for 6 min in Kodak Rapid X-ray Developer (KRX). Relative sensitivity to blue light, Sblue, was evaluated at a density of 0.15 units above fog.

[2] = Example 2: photographic speed and fog, 365 nm exposure, acids vs corresponding esters, emulsion T-1; design: Fog: unit not given here; settings: for Fog / S365: undyed; for S365: control=100
Protocol: This chemically sensitized emulsion was then used to prepare the experimental coating variations indicated in Table I. All of the experimental coating variations in Table I contained the hydroxybenzene 2,4-disulfocatechol (HB3) at a concentration of 13 mmole/mole Ag, added to the melt before the addition of any further addenda. The fragmentable electron donor compounds as indicated in Table I were added from an aqueous potassium bromide solution, or from a methanol solution, before additional water, gelatin, and surfactant were added to the emulsion melts.
(§1) For photographic evaluation, each of the coating strips was exposed for 0.1 sec to a 365 nm emission line of a Hg lamp filtered through a Kodak Wratten filter number 18A and a step wedge ranging in density from 0 to 4 density units in 0.2 density steps. The exposed film strips were developed for 6 min in Kodak Rapid X-ray Developer (KRX). S365, relative sensitivity at 365 nm, was evaluated at a density of 0.2 units above fog.
The coatings described in Table II all contain the hydroxybenzene, 2,4-disulfocatechol (HB3) at a concentration of 13 mmole/mole Ag, added to the melt before any further addenda.

[3] = Example 7: photographic speed and fog with/without HB3, 365 nm exposure, emulsion T-2
Protocol: as §1
An AgBrI tabular silver halide emulsion (Emulsion T-2) was prepared containing 4.05% total I distributed such that the central portion of the emulsion grains contained 1.5% I and the perimeter area contained substantially higher I, as described by Chang et. al., U.S. Pat. No. 5,314,793. […] This emulsion was precipitated using deionized gelatin. The emulsion was sulfur sensitized by adding 8.5×10^-6 mole 1,3-dicarboxymethyl-1,3-dimethyl-2-thiourea /mole Ag at 40° C.; the temperature was then raised to 60° C. at a rate of 5° C./3 min and the emulsions held for 20 min before cooling to 40° C. The chemically sensitized emulsion was then used to prepare coatings containing the fragmentable two-electron donor compounds. […] Where present, the blue sensitizing dye D-I or the red sensitizing dye D-II were added from methanol solution to the emulsion at 40° C. after the chemical sensitization and disulfocatechol addition. The fragmentable two-electron donor compounds were added to the emulsion at 40° C. and the coatings were prepared and tested as described in Example 1, except that the additional gelatin used to prepare the coatings described in Table III was deionized gelatin.
Where present the blue sensitizing dye D-I or the red sensitizing dye D-II were added from methanol solution to the emulsion at 40° C. after the chemical sensitization and disulfocatechol addition. The fragmentable two-electron donating compounds were then added to the emulsion and coatings prepared as described in Example 1, except that the additional gelatin used to prepare the coatings described in Table VII was deionized gelatin. The coatings were tested for their response to a 365 nm exposure as described in Example 1.

[4] = Example 13: photographic speed and fog, 365 nm exposure, cubic emulsion C-3; settings: for Fog / S365: 0.02 x10^-3 mol/mol Ag
Protocol: as §1
A chloride containing cubic emulsion with uniform halide distribution was precipitated using deionized gelatin. Emulsion C-3 was an AgClI emulsion with a 1.5% I content and a cubic edge length of 0.36 μm. The emulsion was chemically sensitized by adding 15 mg of Au2 S/mole Ag using a gelatin dispersion. The chemical sensitizer was added to the emulsion at 40° C., the temperature was then raised to 60° C. and the emulsion held for 20 min before cooling back to 40° C. These experimental coating variations contained the hydroxybenzene, 2,4-disulfocatechcol (HB3) at a concentration of 13 mmole/mole Ag, added to the melt before the addition of any further compounds. Some of the variations were then dyed with the sensitizing dye D-I, added from methanol solution. The fragmentable electron donor compound S-9 was then added to the emulsion melts at 40° C. and coatings were prepared and tested as described in Example 1 except that the additional gelatin used to prepare the coatings described in Table XIII was deionized gelatin.

[5] = Example 8: spectral sensitivity, cubic emulsion C-2; settings: dye II 0.40 x10^-3, dyed control=100
Protocol: Additional testing was carried out to determine the response of the coatings described in Table III to a spectral exposure. Each of the coating strips was exposed for 0.1 sec on a wedge spectrographic instrument that covers the wavelength range from 400 to 750 nm. The instrument contains a tungsten light source and a step tablet ranging in density from 0 to 3 density units in 0.3 density steps. After developing exposed strips for 6 min in Kodak Rapid X-ray Developer (KRX), speed was read at 10 nm wavelength intervals at a density of 0.3 above fog. Correction for the instrument's variation in spectral irradiance with wavelength was done with a computer and a plot of log sensitivity vs. wavelength was generated. For this exposure, for each dye used, the relative sensitivity was set equal to 100 for the control coating with no fragmentable two-electron donor compound added.
Two cubic emulsions with uniform halide composition were precipitated using deionized gelatin. Emulsion C-1 was a AgErI emulsion with a 3% I content and a cubic edge length of 0.47 μm and emulsion C-2 was an AgBr emulsion with a cubic edge length of 0.52 μm. The emulsions were sulfur sensitized by adding 1,3-dicarboxymethyl-1,3-dimethyl-2-thiourea at 40° C.; the temperature was then raised to 60° C. at a rate of 5° C./3 min and the emulsions held for 20 min before cooling to 40° C. The amounts of the sulfur sensitizing compound used were 1.0×10^-5 mole/mole Ag for emulsion C-1, and 6.0×10^-6mole/mole Ag for emulsion C-2. These experimental coating variations contained the hydroxybenzene, 2,4-disulfocatechcol (HB3) at a concentration of 13 mmole/mole Ag, added to the melt before the addition of any further compounds. Some of the variations were then dyed with the sensitizing dye D-II, added from methanol solution. The fragmentable electron donor compounds were then added to the emulsion melts at 40° C. and coatings were prepared and tested as described in Example 1 except that the additional gelatin used to prepare the coatings described in Table VIII was deionized gelatin. Also, the dyed coatings were tested for their response to a spectral exposure as described in Example 3.

[6] = 0.007 x10^-3 mole/mole Ag, HB3 0, dye II 0.86 x10^-3
[7] = 0.007 x10^-3 mole/mole Ag, HB3 13 x10^-3, dye II 0.86 x10^-3
[8] = 0.007 x10^-3 mole/mole Ag, HB3 13 x10^-3, dye II 0.86 x10^-3, dyed control 68
[9] = 0.07 x10^-3 mole/mole Ag, HB3 0, dye I 0.91 x10^-3
[10] = 0.07 x10^-3 mole/mole Ag, HB3 0, no dye
[11] = 0.07 x10^-3 mole/mole Ag, HB3 0, no dye, control=100
[12] = 0.07 x10^-3 mole/mole Ag, HB3 13 x10^-3, dye I 0.91 x10^-3
[13] = 0.07 x10^-3 mole/mole Ag, HB3 13 x10^-3, dye I 0.91 x10^-3, dyed control 105
[14] = 0.07 x10^-3 mole/mole Ag, HB3 13 x10^-3, no dye
[15] = 0.07 x10^-3 mole/mole Ag, HB3 13 x10^-3, no dye, control=100

Structure (SMILES) | Fog [3, 6] | Fog [3, 7] | S365 [3, 8] | Fog [3, 9] | S365 [3, 9] | Fog [3, 10] | S365 [3, 11] | Fog [3, 12] | S365 [3, 13] | Fog [3, 14] | S365 [3, 15] | also measured
CCSCCN(c1ccc(C)cc1)[C@@H](C)C(=O)[O-].[Na+] [Compound S-3, N-(4-Methylphenyl)-N-(2-ethylthio-ethyl)alanine sodium salt] | – | – | – | – | – | – | – | – | – | – | – | sensitivity gain relative to unbathed coating [1]: ~2 X; Fog ([2]; 0.00220 x10^-3 mole/mole Ag): 0.07; S365 ([2]; 0.00220 x10^-3 mole/mole Ag): 110; Fog ([2]; 0.00700 x10^-3 mole/mole Ag): 0.06; S365 ([2]; 0.00700 x10^-3 mole/mole Ag): 120; Fog ([2]; 0.02200 x10^-3 mole/mole Ag): 0.11; S365 ([2]; 0.02200 x10^-3 mole/mole Ag): 141; Fog ([2]; 0.07000 x10^-3 mole/mole Ag): 0.57; Fog ([2]; 0.22000 x10^-3 mole/mole Ag): 1.24; speed and fog change ([2]; undyed T-1 emulsion): both speed and fog increases
CCSCCN(c1ccc(C)cc1)C(CC(=O)O)C(=O)O (centres unmarked) [Compound S-8] | 0.21 | 0.15 | 112 | 0.12 | 155 | 0.16 | 159 | 0.12 | 120 | 0.13 | 162 | S365 [3, 6]: 110
CCSCCN(c1ccccc1)C(C)C(=O)O (centres unmarked) [Compound S-9, N-(Phenyl)-N-(2-thioethyl-ethyl)alanine sodium salt] | 0.77 | 0.44 | 107 | 0.19 | 159 | 0.21 | 170 | 0.13 | 162 | 0.13 | 166 | Fog ([4]; dye I 0.61 x10^-3): 0.14; S365 ([4]; dye I 0.61 x10^-3, dyed control 74): 129; Fog ([4]; no dye): 0.15; S365 ([4]; no dye, control=100): 118; speed increase ([4]; undyed AgClI cubic emulsion): 1.2 X; Sλ ([5]; 0.005 x10^-3 mol/mol Ag): 159; Sλ ([5]; 0.016 x10^-3 mol/mol Ag): 195; Fog ([3]; 0.0022 x10^-3 mole/mole Ag, HB3 13 x10^-3, dye II 0.86 x10^-3): 0.24; S365 ([3]; 0.0022 x10^-3 mole/mole Ag, HB3 13 x10^-3, dye II 0.86 x10^-3, dyed control 68): 115
CCSCCN(c1ccc(C(=O)O)cc1)C(C)C(=O)O (centres unmarked) [Compound S-11] | – | – | – | – | – | – | – | – | – | – | – | Sλ ([5]; 0.05 x10^-3 mol/mol Ag): 159; Sλ ([5]; 0.16 x10^-3 mol/mol Ag): 186
